Laboratory results as given in US7687079B2, “Methods of treating ileus” (priority 2002, dated 2010).
“Also recorded” adds a separate entry of the source.

Tests used:
COX-2 mRNA = COX-2 mRNA in muscularis after IM (real time RT-PCR); format: in vivo, mouse
Method: Pro- and anti-inflammatory gene expression was determined by real time RT-PCR. The small intestinal muscularis externa was collected at 4 time points (3, 6, 12, and 24 hr) postoperatively and snap frozen in liquid nitrogen. Total RNA extraction was performed using the guanidium-thiocyanate phenol-chloroform extraction method as described in Eskandari et al. (Id.) RNA pellets were resuspended in RNA-secure resuspension solution (Ambion Inc., Austin, Tex.), followed by removal of potential contaminating DNA by treatment with DNase I (DNA-Free Kit, Ambion Inc., Austin, Tex.). Equal aliquots (5 μg) of total RNA from each sample were quantified by spectrophotometry (wavelength […]). Peak mRNA expression was quantified in duplicate by SYBR Green two-step, real-time RT-PCR. β-actin was used as the endogenous reference. Aliquoted RNA (40 ng) was subjected to first-strand complementary DNA (cDNA) synthesis using random hexamers (PE applied Biosystems, Foster City, Calif.) and Super Script II (Life Technologies, Rockville, Md.). Primers were taken from the literature or designed according to published sequences (Table 3). PCR reaction mixture was prepared using SYBR Green PCR Core Reagents (PE Applied Biosystems). Each sample was estimated in duplicate using the conditions recommended by the manufacturer. Real-time PCR data were plotted as the ΔRn fluorescence signal versus the cycle number. An arbitrary threshold was set to the midlinear portion of the log ΔRn cycle plot. The threshold cycle (CT) is defined as the cycle number at which the ΔRn, crosses this threshold. Quantification of mRNA expression was normalized to β-actin and calculated relative to control using the comparative CT method.
To exclude PCR amplification of contaminating genomic DNA, RT-negative controls (samples containing RNA which was not reverse transcribed) were included in each PCR reaction. Melting curve analyses were performed for each reaction to ensure amplification of specific product. […] PCR amplification efficiency of each target cDNA was measured by determining the colinearity of serial dilutions. […]

IL-6 mRNA = IL-6 mRNA in muscularis after IM (real time RT-PCR); format: in vivo, mouse; conditions: IM + CO, 3 and 6 hr time points
Method: Pro- and anti-inflammatory gene expression was determined by real time RT-PCR. The small intestinal muscularis externa was collected at 4 time points (3, 6, 12, and 24 hr) postoperatively and snap frozen in liquid nitrogen. Total RNA extraction was performed using the guanidium-thiocyanate phenol-chloroform extraction method as described in Eskandari et al. (Id.) RNA pellets were resuspended in RNA-secure resuspension solution (Ambion Inc., Austin, Tex.), followed by removal of potential contaminating DNA by treatment with DNase I (DNA-Free Kit, Ambion Inc., Austin, Tex.). Equal aliquots (5 μg) of total RNA from each sample were quantified by spectrophotometry (wavelength […]). Peak mRNA expression was quantified in duplicate by SYBR Green two-step, real-time RT-PCR. β-actin was used as the endogenous reference. […] Real-time PCR data were plotted as the ΔRn fluorescence signal versus the cycle number. […] Quantification of mRNA expression was normalized to β-actin and calculated relative to control using the comparative CT method.
To exclude PCR amplification of contaminating genomic DNA, RT-negative controls (samples containing RNA which was not reverse transcribed) were included in each PCR reaction. […] PCR amplification efficiency of each target cDNA was measured by determining the colinearity of serial dilutions. […]

serum IL-6 = serum IL-6 ELISA after SITx; format: in vivo, rat
Method: Serum samples were taken sequentially at 1, 4 and 24 hours after reperfusion and stored at −80° C. until evaluation. Serum cytokine concentrations, including IL-6, IL-10 and TNFα, were determined using rat enzyme-linked immunoassay (ELISA) kits as described by the manufacturer (R & D, Cambridge, Mass.).
FIG. 6 is a set of bar graphs that illustrate the effect of CO on serum IL-6 and nitrate/nitrite concentrations in animals receiving intestinal grafts at one and four hours after reperfusion. […] Serum IL-6 concentrations were determined using a rat enzyme-linked immunoassay (ELISA) kit (R&D, Cambridge, Mass.). The serum nitrite/nitrate levels, the stable end products of NO metabolism, were measured using a commercially available test kit (Cayman, Ann Arbor, Mich.). In this assay system, nitrate is reduced to nitrite using nitrate reductase, and nitrite concentration of the sample was subsequently measured using the Griess reaction. Serum IL-6 and nitrite/nitrate levels in animals subjected SITx and treated with air increased over time.

[C-]#[O+] [CO, carbon monoxide]
IM-induced COX-2 gene expression (COX-2 mRNA; IM + CO, 3 or 6 hr time points): no effect | COX-2 mRNA expression (COX-2 mRNA; control animals, CO inhalation, 3 hr post-treatment): significantly increased | induction of COX-2 message (COX-2 mRNA; unoperated control mice, CO inhalation alone, 3 hr): 2.5 fold | manipulation-induced IL-6 gene expression (IL-6 mRNA): no effect | serum IL-6 level (serum IL-6; SITx + CO vs SITx with air): significantly decreased; also recorded: significantly lower | Serum IL-6 (serum IL-6; SITx + CO, 4 hours after reperfusion, Table 2): 1439 pg/mL
